Assay results reported in patent publication US11813340B2, “PSMA targeted radiohalogenated urea-polyaminocarboxylates for cancer radiotherapy” (The Johns Hopkins University, priority 2018, dated 2023).
Read-outs that look alike come from different tables or passages of the source.

Tests used:
[1] = system: PSMA + PC3-PIP and PSMA-PC3-flu flank xenografts; test: Biodistribution of At-211 labeled PSMA inhibitors with and without cold blocking agent (Tables 6-8); format: in vivo, athymic mice; conditions: mice
[2] = system: PSMA + PC3-PIP and PSMA-PC3-flu flank xenografts; conditions: no blocker, inhibitors reported in WO2017070482, cited from earlier work
[3] = system: preclinical models of human prostate cancer (PC); conditions: Kiess et al., 2016, cited from earlier work
[4] = system: PSMA+PC3-PIP and PSMA-PC3-flu flank xenografts; test: Biodistribution of [125I/211At]2 and 3 with and without co-injection of DCIBzL (Example 6); format: in vivo, athymic mice; conditions: no co-injection
Excerpt: Final compounds were purified by HPLC.

[5] = system: PSMA + PC3-PIP and PSMA-PC3-flu flank xenografts; conditions: without cold blocking agent
Protocol: Final compounds were purified by HPLC. […] Organs were harvested 1, 4, and 24 h post-injection (n=5 per time point).

[6] = system: PiP (tumor) and Flu (tumor); test: Biodistribution of [125I]VK-03-03 and [125I]VK-03-03-Lu in mice (Table 9); format: in vivo

O=C(O)CC[C@H](NC(=O)N[C@@H](CCCCN(Cc1ccc([211At])cc1)C(=O)CCCCNC(=O)CN1CCN(CC(=O)O)CCN(CC(=O)O)CCN(CC(=O)O)CC1)C(=O)O)C(=O)O [[^211At]VK-02-90]
radioactivity in the stomach [1]: very low | stability in-vivo [1]: stable in-vivo

O=C(O)CC[C@H](NC(=O)NC(CCCCNC(=O)c1ccc([211At])cc1)C(=O)O)C(=O)O (stereo partly drawn) [YC-I-27, (2S)-2-(3-(1-Carboxy-5-(4-211At-Astatobenzamido)Pentyl)Ureido)-Pentanedioic Acid]
Biodistribution, Blood ([2]; 1 Hour): 1.7 ± 0.3 % injected dose/g | Biodistribution, Flu tumor ([2]; 1 Hour): 2.2 ± 0.4 % injected dose/g | Biodistribution, PIP tumor ([2]; 1 Hour): 17.9 ± 3.0 % injected dose/g | Biodistribution, Spleen ([2]; 1 Hour): 29 ± 10 % injected dose/g | Biodistribution, Stomach ([2]; 1 Hour): 10.1 ± 1.7 % injected dose/g | Biodistribution, kidney ([2]; 1 Hour): 71 ± 12 % injected dose/g | Biodistribution, thyroid ([2]; 1 Hour): 3.7 ± 1.1 % injected dose/g | Biodistribution, Blood ([2]; 4 H): 1.0 ± 0.1 % injected dose/g | Biodistribution, Flu tumor ([2]; 4 H): 1.5 ± 0.2 % injected dose/g | Biodistribution, Spleen ([2]; 4 H): 20.3 ± 3.6 % injected dose/g | Biodistribution, kidney ([2]; 4 H): 60 ± 12 % injected dose/g | Biodistribution, thyroid ([2]; 4 H): 3.8 ± 1.2 % injected dose/g | Biodistribution, Blood ([2]; 21-24 Hour (footnote a)): 0.5 ± 0.05 % injected dose/g | Biodistribution, Flu tumor ([2]; 21-24 Hour (footnote a)): 1.2 ± 0.2 % injected dose/g | Biodistribution, PIP tumor ([2]; 21-24 Hour (footnote a)): 31.1 ± 9.8 % injected dose/g | Biodistribution, Spleen ([2]; 21-24 Hour (footnote a)): 8.0 ± 2.0 % injected dose/g | Biodistribution, Stomach ([2]; 21-24 Hour (footnote a)): 9.4 ± 3.0 % injected dose/g | Biodistribution, kidney ([2]; 21-24 Hour (footnote a)): 57.4 ± 7.4 % injected dose/g | Biodistribution, thyroid ([2]; 21-24 Hour (footnote a)): 6.5 ± 2.0 % injected dose/g | efficacy as PSMA-targeted radiopharmaceutical therapy (RPT) agent [3]: high efficacy | renal toxicity ([3]; due to high uptake and long retention in kidney): caused renal failure

O=C(O)CC[C@H](NC(=O)N[C@@H](CCCCN(Cc1ccc([125I])cc1)C(=O)CCCCNC(=O)CN1CCN(CC(=O)O)CCN(CC(=O)O)CCN(CC(=O)O)CC1)C(=O)O)C(=O)O [[^125I]VK-02-90]
retention of radioactivity, lacrimal glands (LG) ([4]; 1h): 17.4±6.0 % ID/g | retention of radioactivity, salivary glands (SG) ([4]; 1h): 5.1±3.4 % ID/g | retention of radioactivity, kidneys (K) ([4]; 4 h): 162±36 % ID/g | retention of radioactivity, kidneys (K) ([4]; 24 h): 30.6±14.0 % ID/g | Biodistribution, Blood ([5]; 1 H): 1.1 ± 0.3 % injected dose/g | Biodistribution, Flu tumor ([5]; 1 H): 1.4 ± 0.6 % injected dose/g | Biodistribution, Kidneys ([5]; 1 H): 194 ± 25 % injected dose/g | Biodistribution, Lacrimal glands ([5]; 1 H): 17.4 ± 6.0 % injected dose/g | Biodistribution, Pip (tumor) ([5]; 1 H): 58 ± 14 % injected dose/g | Biodistribution, Salivary glands ([5]; 1 H): 5.1 ± 3.4 % injected dose/g | Biodistribution, Spleen ([5]; 1 H): 40.2 ± 16.4 % injected dose/g | Biodistribution, Stomach ([5]; 1 H): 1.1 ± 0.3 % injected dose/g | Biodistribution, Blood ([5]; 4 H): 0.2 ± 0.03 % injected dose/g | Biodistribution, Flu tumor ([5]; 4 H): 0.3 ± 0.06 % injected dose/g | Biodistribution, Kidneys ([5]; 4 H): 162 ± 36 % injected dose/g | Biodistribution, Lacrimal glands ([5]; 4 H): 1.9 ± 0.45 % injected dose/g | Biodistribution, Pip (tumor) ([5]; 4 H): 38 ± 13 % injected dose/g | Biodistribution, Salivary glands ([5]; 4 H): 0.7 ± 0.2 % injected dose/g | Biodistribution, Spleen ([5]; 4 H): 4.7 ± 1.2 % injected dose/g | Biodistribution, Stomach ([5]; 4 H): 0.4 ± 0.2 % injected dose/g | Biodistribution, Blood ([5]; 24 H): 0.02 ± 0.01 % injected dose/g | Biodistribution, Flu tumor ([5]; 24 H): 0.04 ± 0.02 % injected dose/g | Biodistribution, Kidneys ([5]; 24 H): 30.6 ± 14.0 % injected dose/g | Biodistribution, Lacrimal glands ([5]; 24 H): 0.5 ± 0.2 % injected dose/g | Biodistribution, Pip (tumor) ([5]; 24 H): 51 ± 7 % injected dose/g | Biodistribution, Salivary glands ([5]; 24 H): 0.3 ± 0.3 % injected dose/g | Biodistribution, Spleen ([5]; 24 H): 0.7 ± 0.4 % injected dose/g | Biodistribution, Stomach ([5]; 24 H): 0.05 ± 0.03 % injected dose/g

O=C(O)CC[C@H](NC(=O)N[C@@H](CCCCN(Cc1ccc(Br)cc1)C(=O)CCCCNC(=O)c1cc([125I])cc(C(=O)NCCNC(=O)CN2CCN(CC(=O)O)CCN(CC(=O)O)CCN(CC(=O)O)CC2)c1)C(=O)O)C(=O)O [[^125I]VK-03-03]
Biodistribution Data, Flu (tumor) ([6]; 1 H): 2.0 ± 0.7 | Biodistribution Data, PiP (tumor) ([6]; 1 H): 44.7 ± 12.2 | Biodistribution Data, bladder ([6]; 1 H): 5.0 ± 2.9 | Biodistribution Data, blood ([6]; 1 H): 1.6 ± 0.26 | Biodistribution Data, fat ([6]; 1 H): 3.2 ± 0.7 | Biodistribution Data, heart ([6]; 1 H): 1.6 ± 0.5 | Biodistribution Data, kidney ([6]; 1 H): 132 ± 18.5 | Biodistribution Data, lacrimal gland ([6]; 1 H): 25.4 ± 4.1 | Biodistribution Data, large intestine ([6]; 1 H): 1.2 ± 0.06 | Biodistribution Data, liver ([6]; 1 H): 0.9 ± 0.15 | Biodistribution Data, lung ([6]; 1 H): 4.5 ± 0.6 | Biodistribution Data, muscle ([6]; 1 H): 1.0 ± 0.2 | Biodistribution Data, pancreas ([6]; 1 H): 1.8 ± 0.27 | Biodistribution Data, salivary gland ([6]; 1 H): 5.0 ± 0.86 | Biodistribution Data, small intestine ([6]; 1 H): 0.76 ± 0.13 | Biodistribution Data, spleen ([6]; 1 H): 70.0 ± 20.4 | Biodistribution Data, stomach ([6]; 1 H): 1.0 ± 0.12 | Biodistribution Data, Flu (tumor) ([6]; 4 H): 1.2 ± 0.28 | Biodistribution Data, PiP (tumor) ([6]; 4 H): 57.0 ± 15.9 | Biodistribution Data, bladder ([6]; 4 H): 2.4 ± 0.5 | Biodistribution Data, blood ([6]; 4 H): 0.49 ± 0.08 | Biodistribution Data, fat ([6]; 4 H): 4.1 ± 1.5 | Biodistribution Data, heart ([6]; 4 H): 0.9 ± 0.03 | Biodistribution Data, kidney ([6]; 4 H): 165 ± 14.4 | Biodistribution Data, lacrimal gland ([6]; 4 H): 15.8 ± 4.9 | Biodistribution Data, large intestine ([6]; 4 H): 0.58 ± 0.19 | Biodistribution Data, liver ([6]; 4 H): 0.4 ± 0.2 | Biodistribution Data, lung ([6]; 4 H): 2.3 ± 0.3 | Biodistribution Data, muscle ([6]; 4 H): 0.64 ± 0.22 | Biodistribution Data, pancreas ([6]; 4 H): 1.5 ± 0.05 | Biodistribution Data, salivary gland ([6]; 4 H): 3.5 ± 0.4 | Biodistribution Data, small intestine ([6]; 4 H): 0.37 ± 0.08 | Biodistribution Data, spleen ([6]; 4 H): 37.4 ± 8.9 | Biodistribution Data, stomach ([6]; 4 H): 0.95 ± 0.7 | Biodistribution Data, Flu (tumor) ([6]; 24 H): 0.2 ± 0.09 | Biodistribution Data, PiP (tumor) ([6]; 24 H): 54.1 ± 6.3 | Biodistribution Data, bladder ([6]; 24 H): 1.6 ± 0.75 | Biodistribution Data, blood ([6]; 24 H): 0.09 ± 0.02 | Biodistribution Data, fat ([6]; 24 H): 0.37 ± 0.28 | Biodistribution Data, heart ([6]; 24 H): 0.17 ± 0.08 | Biodistribution Data, kidney ([6]; 24 H): 141 ± 18.3 | Biodistribution Data, lacrimal gland ([6]; 24 H): 2.6 ± 0.76 | Biodistribution Data, large intestine ([6]; 24 H): 0.11 ± 0.06 | Biodistribution Data, liver ([6]; 24 H): 0.09 ± 0.02 | Biodistribution Data, lung ([6]; 24 H): 0.58 ± 0.2 | Biodistribution Data, muscle ([6]; 24 H): 0.1 ± 0.05 | Biodistribution Data, pancreas ([6]; 24 H): 0.26 ± 0.07 | Biodistribution Data, salivary gland ([6]; 24 H): 0.6 ± 0.16 | Biodistribution Data, small intestine ([6]; 24 H): 0.08 ± 0.03 | Biodistribution Data, spleen ([6]; 24 H): 4.9 ± 2.7 | Biodistribution Data, stomach ([6]; 24 H): 0.18 ± 0.06 | clearance of radioactivity in the kidneys ([6]; mouse, in vivo): does not clear over time | tumor uptake ([6]; mouse, in vivo): high and prolonged tumor uptake
